In patent publication US12673041B2, “4-aminobut-2-enamide derivatives and salt thereof” (TAIHO PHARMACEUTICAL CO., LTD., priority 2019, dated 2026):

Experiments:
MIA PaCa-2 cells = assay: Growth inhibition activity on KRAS-G12C mutant cell line (MIA PaCa-2); assay type: cell-based; settings: Homo sapiens, 72 h; MIA PaCa-2, 3-day culture, CellTiter-Glo 3D
Protocol: MIA PaCa-2 cells (given by Sumitomo Dainippon Pharma Co., Ltd.), which are a KRAS-G12C mutant human pancreas cancer cell line, were suspended in a 10% fetal bovine serum-containing RPMI1640 medium (manufactured by Fujifilm Wako Pure Chemical Corporation.). The cell suspension was seeded into each well of a 384-well U bottom microplate and cultured in an incubator containing 5% CO2 gas at 37° C. for 1 day. The compounds obtained in the “Preparation of Compounds” section were used as test compounds and were dissolved in DMSO, respectively, and each test compound was diluted with DMSO to give a concentration 500 times the final concentration. The resultant solution of the test compound in DMSO was diluted with the medium used for suspending cells and added to each well of the cell-culture plate to give a DMSO final concentration of 0.2%, followed by culture in an incubator containing 5% CO2 gas at 37° C. for another 3 days. The cell count after 3-day culture in the presence of the test compound was measured using CellTiter-Glo 3D Reagent (manufactured by Promega Corporation). All wells were added with CellTiter-Glo 3D Reagent and mixed for 10 minutes. 30 minutes after mixing, luminescence was measured by a plate reader. The growth inhibition rate was calculated from the following equation, and the concentration of the test compound at which 50% inhibition was achieved (IC50 (nM)) was determined. […] Growth Inhibition Rate (%)=(C−T)/(C)×100 • T: the emission intensity in a well into which a test compound was added. • C: the emission intensity in a well into which a test compound was not added.

[1] = target: Gppcp-bound recombinant K-Ras4B G12C mutant protein (amino acids 1-169, C51S/C80L/C118S) (Homo sapiens, UniProt P01116, C118S/C51S/C80L/G12C); assay: KRASG12C binding assay (LC-MS compound binding rate); settings: test compound final concentration 0.5 μM, 25° C., 1 hour
Outline: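 Gppcp-bound K-Ras4B G12C (aa 1-169, C51S/C80L/C118S) at 50 nM in 1×TBS, 0.1 mM TCEP, 0.25 mM MgCl2, 50 μM Gppcp was incubated 1 hour at 25° C with compound at 0.5 μM final. Intact-protein LC-MS gave binding rate as single-adduct signal over total KRAS signal, graded A (≥80%) to E (<20%).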

[2] = target: T1, GMPPNP-bound KRAS G12C protein and cRAF RAS-binding domain (cRAF-RBD) (Homo sapiens, UniProt P01116, G12C); assay: Inhibitory activity on interaction between KRAS G12C and cRAF (Alpha technology); assay type: biochemical; settings: GMPPNP-bound KRAS G12C incubated with compound at 25° C. for 1 hour, then cRAF-RBD, Alpha signal; read-out: IC50
T1 construct: made in house; host or cells: E. coli
Outline: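 GMPPNP-loaded His-KRAS G12C (aa 1-169) preincubated 1 h at 25 °C with compound (pH 7.5 Tris, 1 mM MgCl2, TCEP, Tween 20), then cRAF-RBD (aa 50-132) and Alpha reagents added for 1.5 h at RT. Inhibition scaled between DMSO (0%) and GDP-bound KRAS (100%); IC50 by curve fitting.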

Compound	IC50 (MIA PaCa-2 cells) [nM]	IC50 [2] [nM]	binding rate [1]
Cn1cnc2cc(-c3cccn4c(C(=O)c5ccc(NC(=O)/C=C/CNC(C)(C)C)c(F)c5)ccc34)c(C(F)(F)F)cc21 [Example 51, (2E)-4-(tert-Butylamino)-N-(2-fluoro-4-{8-[1-methyl-6-(trifluoromethyl)-1H-1,3-benzodiazol-5-yl]indolizine-3-carbonyl}phenyl)but-2-enamide]	170	95	B (a binding rate of 60% or more and less than 80% is rated “B”)
Cn1cnc2c(Cl)c(-c3cccn4c(C(=O)c5ccc(NC(=O)/C=C/CNC(C)(C)C)c(C#N)c5)ccc34)c(Cl)cc21 [Example 55, (E)-4-(tert-butylamino)-N-(2-cyano-4-(8-(4,6-dichloro-1-methyl-1H-benzo[d]imidazol-5-yl)indolizine-3-carbonyl)phenyl)but-2-enamide]	140	21	A (A binding rate of 80% or more is rated “A”)
CO[C@H]1CC[C@H](NC/C=C/C(=O)Nc2ccc(C(=O)c3csc4c(-c5cc6ncn(C)c6cc5C)cccc34)cc2C#N)CC1 [Example 56, (E)-N-(2-cyano-4-(7-(1,6-dimethyl-1H-benzo[d]imidazol-5-yl)benzo[b]thiophene-3-carbonyl)phenyl)-4-(((1r,4r)-4-methoxycyclohexyl)amino)but-2-enamide]	350	86	A (A binding rate of 80% or more is rated “A”)
CN(C)C/C=C/C(=O)Nc1ccc(C(=O)c2ccc3c(-c4cc5ncn(C)c5cc4C(F)(F)F)cccn23)cc1C#N [Example 66, (E)-N-(2-cyano-4-(8-(1-methyl-6-(trifluoromethyl)-1H-benzo[d]imidazol-5-yl)indolizine-3-carbonyl)phenyl)-4-(dimethylamino)but-2-enamide]	240	84	C (a binding rate of 40% or more and less than 60% is rated “C”)
Cn1cnc2cc(-c3cccn4c(C(=O)c5cc(F)c(NC(=O)/C=C/CNC(C)(C)C)c(F)c5)cnc34)c(C(F)(F)F)cc21 [Example 67, (E)-4-(tert-butylamino)-N-(2,6-difluoro-4-(8-(1-methyl-6-(trifluoromethyl)-1H-benzo[d]imidazol-5-yl)imidazo[1,2-a]pyridine-3-carbonyl)phenyl)but-2-enamide]	560	63	B (a binding rate of 60% or more and less than 80% is rated “B”)
CO[C@H]1CC[C@H](NC/C=C/C(=O)Nc2c(F)cc(C(=O)c3cnc4c(-c5cc6ncn(C)c6cc5C(F)(F)F)cccn34)cc2F)CC1 [Example 68, (E)-N-(2,6-difluoro-4-(8-(1-methyl-6-(trifluoromethyl)-1H-benzo[d]imidazol-5-yl)imidazo[1,2-a]pyridine-3-carbonyl)phenyl)-4-(((1r,4r)-4-methoxycyclohexyl)amino)but-2-enamide]	240	57	B (a binding rate of 60% or more and less than 80% is rated “B”)
Cc1cc2c(cc1-c1cccn3c(C(=O)c4cc(F)c(NC(=O)/C=C/CNC(C)(C)C)c(F)c4)ccc13)ncn2C [Example 72, (E)-4-(tert-butylamino)-N-(4-(8-(1,6-dimethyl-1H-benzo[d]imidazol-5-yl)indolizine-3-carbonyl)-2,6-difluorophenyl)but-2-enamide]	200	34	A (A binding rate of 80% or more is rated “A”)
CO[C@H]1CC[C@H](NC/C=C/C(=O)Nc2c(F)cc(C(=O)c3ccc4c(-c5cc6ncn(C)c6cc5C)cccn34)cc2F)CC1 [Example 73, (E)-N-(4-(8-(1,6-dimethyl-1H-benzo[d]imidazol-5-yl)indolizine-3-carbonyl)-2,6-difluorophenyl)-4-(((1r,4r)-4-methoxycyclohexyl)amino)but-2-enamide]	280	32	A (A binding rate of 80% or more is rated “A”)
CO[C@H]1CC[C@H](N(C)C/C=C/C(=O)Nc2ccc(C(=O)c3ccc4c(-c5cc6ncn(C)c6cc5C(F)(F)F)cccn34)cc2C#N)CC1 [Example 78, (E)-N-(2-cyano-4-(8-(1-methyl-6-(trifluoromethyl)-1H-benzo[d]imidazol-5-yl)indolizine-3-carbonyl)phenyl)-4-(((1r,4r)-4-methoxycyclohexyl)(methyl)amino)but-2-enamide]	400	96	C (a binding rate of 40% or more and less than 60% is rated “C”)
CO[C@H]1CC[C@H](NC/C=C/C(=O)Nc2ccc(C(=O)c3cnc4c(-c5cc6ncn(C)c6cc5C(F)(F)F)cccn34)cc2C#N)CC1 [Example 80, (E)-N-(2-cyano-4-(8-(1-methyl-6-(trifluoromethyl)-1H-benzo[d]imidazol-5-yl)imidazo[1,2-a]pyridine-3-carbonyl)phenyl)-4-(((1r,4r)-4-methoxycyclohexyl)amino)but-2-enamide]	190	27	A (A binding rate of 80% or more is rated “A”)

Now those with a lower IC50 (MIA PaCa-2 cells), led by results:

IC50 (MIA PaCa-2 cells) [nM]	IC50 [2] [nM]	Compound	binding rate [1]
75	31	Cn1cnc2cc(-c3cccn4c(C(=O)c5cc(F)c(NC(=O)/C=C/CNC(C)(C)C)c(F)c5)ccc34)c(C(F)(F)F)cc21 [Example 49, (2E)-4-(tert-Butylamino)-N-(2,6-difluoro-4-{8-[1-methyl-6-(trifluoromethyl)-1H-1,3-benzodiazol-5-yl]indolizine-3-carbonyl}phenyl)but-2-enamide]	A (A binding rate of 80% or more is rated “A”)
64	19	Cc1cc2c(ncn2C)c(Cl)c1-c1cccn2c(C(=O)c3ccc(NC(=O)/C=C/CNC(C)(C)C)c(C#N)c3)ccc12 [Example 59, (E)-4-(tert-butylamino)-N-(4-(8-(4-chloro-1,6-dimethyl-1H-benzo[d]imidazol-5-yl)indolizine-3-carbonyl)-2-cyanophenyl)but-2-enamide]	A (A binding rate of 80% or more is rated “A”)
59	20	CO[C@H]1CC[C@H](NC/C=C/C(=O)Nc2ccc(C(=O)c3ccc4c(-c5c(C)cc6c(ncn6C)c5Cl)cccn34)cc2C#N)CC1 [Example 60, (E)-N-(4-(8-(4-chloro-1,6-dimethyl-1H-benzo[d]imidazol-5-yl)indolizine-3-carbonyl)-2-cyanophenyl)-4-(((1r,4r)-4-methoxycyclohexyl)amino)but-2-enamide]	A (A binding rate of 80% or more is rated “A”)
69	82	CO[C@H]1CC[C@H](NC/C=C/C(=O)Nc2ccc(C(=O)c3ccc4c(-c5c(C)cc6c(ncn6C)c5C(C)C)cccn34)cc2C#N)CC1 [Example 64, (E)-N-(2-cyano-4-(8-(4-isopropyl-1,6-dimethyl-1H-benzo[d]imidazol-5-yl)indolizine-3-carbonyl)phenyl)-4-(((1r,4r)-4-methoxycyclohexyl)amino)but-2-enamide]	A (A binding rate of 80% or more is rated “A”)
72	27	CO[C@H]1CC[C@H](NC/C=C/C(=O)Nc2c(F)cc(C(=O)c3ccc4c(-c5cc6ncn(C)c6cc5C(F)(F)F)cccn34)cc2F)CC1 [Example 70, (E)-N-(2,6-difluoro-4-(8-(1-methyl-6-(trifluoromethyl)-1H-benzo[d]imidazol-5-yl)indolizine-3-carbonyl)phenyl)-4-(((1r,4r)-4-methoxycyclohexyl)amino)but-2-enamide]	A (A binding rate of 80% or more is rated “A”)
70	21	COc1cc2c(cc1-c1cccn3c(C(=O)c4ccc(NC(=O)/C=C/CN[C@H]5CC[C@H](OC)CC5)c(C#N)c4)ccc13)ncn2C [Example 81, (E)-N-(2-cyano-4-(8-(6-methoxy-1-methyl-1H-benzo[d]imidazol-5-yl)indolizine-3-carbonyl)phenyl)-4-(((1r,4r)-4-methoxycyclohexyl)amino)but-2-enamide]	A (A binding rate of 80% or more is rated “A”)
